{"source": "paper PMC10518257", "about": "(Nature Cancer, 2023)", "key": {"[1]": {"system": "TT cells", "test": "Growth inhibition (alamarBlue, 96 h)", "assay_type": "cell-based, human"}, "[2]": {"system": "LUAD-0077AS1 PDX", "test": "PDX efficacy study", "assay_type": "in vivo, NSG mice", "design": "Tumor volume: unit not given here", "conditions": "for Area Under Curve Mean: Fig. 6b LUAD-0077AS1 tumor growth; for Change in tumor volume (block without heading, Fig. 6b) / Tumor volume: LUAD-0077AS1, individual animals"}, "[3]": {"system": "Ba/F3 KIF5B–RET^WT allograft tumors", "test": "Subcutaneous allograft efficacy study", "assay_type": "in vivo, BALB/c nude mice", "conditions": "Ba/F3-KIF5B::RET, Ext. Data Fig. 9b"}, "[4]": {"system": "Ba/F3 KIF5B–RET^G810R allograft tumors", "test": "Subcutaneous allograft efficacy study", "assay_type": "in vivo, BALB/c nude mice", "conditions": "in mm³ (unit assumed)"}}, "note": "pIC50: −log10 of the molar value. Values joined by “and” are separate entries in the source; they are usually repeats but may differ in a detail not shown here. Equal entries are not always repeated."}
{"compound": "CO[C@]1(C(=O)N[C@@H](C)c2ccc(-n3cc(F)cn3)nc2)CC[C@H](c2nc(C)cc(Nc3cc(C)[nH]n3)n2)CC1", "note": "[Pralsetinib]", "values": [{"measurement": "raw viability signal (Source Data Fig. 3b-c)", "setting": "[1]; 10000 nM, replicate sets", "result": "7016.43 and 7739.61 and 10148.3 and 3836.13 and 9483.47"}, {"measurement": "pIC50", "setting": "[1]; Homo sapiens, 96 h, read-out: IC50 for Inhibition of Growth (95% CI)", "result": 7.52}, {"measurement": "Area Under Curve Mean", "setting": "[2]; 15 mg/kg BID", "result": 189.7}, {"measurement": "Area Under Curve Mean", "setting": "[2]; 30 mg/kg BID", "result": -512.3}, {"measurement": "Change in tumor volume (block without heading, Fig. 6b)", "setting": "[2]; 15 mg/kg BID", "result": "31.8218 and 17.159 and 11.071 and 13.2706 and -8.805"}, {"measurement": "Tumor volume", "setting": "[2]; 15 mg/kg BID, treatment day 0", "result": "88.7 (3×) and 87.11 (2×)"}, {"measurement": "Tumor volume", "setting": "[2]; 15 mg/kg BID, treatment day 4", "result": "88.7 (4×) and 87.11"}, {"measurement": "Tumor volume", "setting": "[2]; 15 mg/kg BID, treatment day 7", "result": "88.7 (2×) and 80.89 and 77.87 and 90.28"}, {"measurement": "Tumor volume", "setting": "[2]; 15 mg/kg BID, treatment day 11", "result": "66.76 and 80.89 (2×) and 42.6 and 72.18"}, {"measurement": "Tumor volume", "setting": "[2]; 15 mg/kg BID, treatment day 14", "result": "70.82 and 80.89 and 64.12 and 83.97 and 73.54"}, {"measurement": "Tumor volume", "setting": "[2]; 15 mg/kg BID, treatment day 19", "result": "80.89 and 98.67 and 103.92 and 114.83 and 98.52"}, {"measurement": "Tumor volume", "setting": "[2]; 15 mg/kg BID, treatment day 22", "result": "150.13 and 109.36 and 130.83 and 152.27 and 164.53"}, {"measurement": "Tumor volume", "setting": "[2]; 15 mg/kg BID, treatment day 25", "result": "166.88 and 122.74 and 141.32 and 205.88 and 187.29"}, {"measurement": "Change in tumor volume (block without heading, Fig. 6b)", "setting": "[2]; 30 mg/kg BID", "result": "-26.3021 and -30.7542 and -32.7343 and -33.6127 and -36.9233"}, {"measurement": "Tumor volume", "setting": "[2]; 30 mg/kg BID, treatment day 0", "result": "88.7 and 87.11 (2×) and 82.36 (2×)"}, {"measurement": "Tumor volume", "setting": "[2]; 30 mg/kg BID, treatment day 4", "result": "88.7 (2×) and 87.11 and 82.36 and 83.97"}, {"measurement": "Tumor volume", "setting": "[2]; 30 mg/kg BID, treatment day 7", "result": "72.18 and 70.82 and 68.07 and 66.76 and 74.9"}, {"measurement": "Tumor volume", "setting": "[2]; 30 mg/kg BID, treatment day 11", "result": "57.83 (2×) and 60.32 (2×) and 64.12"}, {"measurement": "Tumor volume", "setting": "[2]; 30 mg/kg BID, treatment day 14", "result": "52.07 and 53.01 (2×) and 50.68 and 49.83"}, {"measurement": "Tumor volume", "setting": "[2]; 30 mg/kg BID, treatment day 19", "result": "65.37 and 57.83 and 55.4 and 60.32 and 51.95"}, {"measurement": "Tumor volume", "setting": "[2]; 30 mg/kg BID, treatment day 22", "result": "65.37 and 48.41 and 53.01 and 51.95 (2×)"}, {"measurement": "Tumor volume", "setting": "[2]; 30 mg/kg BID, treatment day 25", "result": "65.37 and 83.97 and 60.32 and 53.01 and 55.4"}, {"measurement": "Tumor Volume Mean", "setting": "[3]; 3 mg/kg BID, Day 1", "result": 221.52, "unit": "mm3"}, {"measurement": "Tumor Volume Mean", "setting": "[3]; 3 mg/kg BID, Day 4", "result": 379.17, "unit": "mm3"}, {"measurement": "Tumor Volume Mean", "setting": "[3]; 3 mg/kg BID, Day 8", "result": 482.68, "unit": "mm3"}, {"measurement": "Tumor Volume Mean", "setting": "[3]; 3 mg/kg BID, Day 11", "result": 745.24, "unit": "mm3"}, {"measurement": "Tumor Volume Mean", "setting": "[3]; 3 mg/kg BID, Day 15", "result": 1198.84, "unit": "mm3"}, {"measurement": "Tumor Volume Mean", "setting": "[3]; 10 mg/kg BID, Day 1", "result": 212.85, "unit": "mm3"}, {"measurement": "Tumor Volume Mean", "setting": "[3]; 10 mg/kg BID, Day 4", "result": 215.66, "unit": "mm3"}, {"measurement": "Tumor Volume Mean", "setting": "[3]; 10 mg/kg BID, Day 8", "result": 297.15, "unit": "mm3"}, {"measurement": "Tumor Volume Mean", "setting": "[3]; 10 mg/kg BID, Day 11", "result": 403.26, "unit": "mm3"}, {"measurement": "Tumor Volume Mean", "setting": "[3]; 10 mg/kg BID, Day 15", "result": 433.99, "unit": "mm3"}, {"measurement": "Tumor Volume Mean", "setting": "[3]; 30 mg/kg BID, Day 1", "result": 218.49, "unit": "mm3"}, {"measurement": "Tumor Volume Mean", "setting": "[3]; 30 mg/kg BID, Day 4", "result": 127.84, "unit": "mm3"}, {"measurement": "Tumor Volume Mean", "setting": "[3]; 30 mg/kg BID, Day 8", "result": 80.68, "unit": "mm3"}, {"measurement": "Tumor Volume Mean", "setting": "[3]; 30 mg/kg BID, Day 11", "result": 53.52, "unit": "mm3"}, {"measurement": "Tumor Volume Mean", "setting": "[3]; 30 mg/kg BID, Day 15", "result": 67.12, "unit": "mm3"}, {"measurement": "Tumor Volume Mean", "setting": "[3]; 60 mg/kg BID, Day 1", "result": 225.80, "unit": "mm3"}, {"measurement": "Tumor Volume Mean", "setting": "[3]; 60 mg/kg BID, Day 4", "result": 95.08, "unit": "mm3"}, {"measurement": "Tumor Volume Mean", "setting": "[3]; 60 mg/kg BID, Day 8", "result": 69.89, "unit": "mm3"}, {"measurement": "Tumor Volume Mean", "setting": "[3]; 60 mg/kg BID, Day 11", "result": 52.39, "unit": "mm3"}, {"measurement": "Tumor Volume Mean", "setting": "[3]; 60 mg/kg BID, Day 15", "result": 58.70, "unit": "mm3"}, {"measurement": "Tumor Volume Mean", "setting": "[4]; Fig. 7c Ba/F3-KIF5B::RET G810R, pralsetinib 10 mg/kg BID, day 1", "result": 154.09}, {"measurement": "Tumor Volume Mean", "setting": "[4]; Fig. 7c Ba/F3-KIF5B::RET G810R, pralsetinib 10 mg/kg BID, day 4", "result": 213.90}, {"measurement": "Tumor Volume Mean", "setting": "[4]; Fig. 7c Ba/F3-KIF5B::RET G810R, pralsetinib 10 mg/kg BID, day 8", "result": 315.85}, {"measurement": "Tumor Volume Mean", "setting": "[4]; Fig. 7c Ba/F3-KIF5B::RET G810R, pralsetinib 10 mg/kg BID, day 11", "result": 472.80}, {"measurement": "Tumor Volume Mean", "setting": "[4]; Fig. 7c Ba/F3-KIF5B::RET G810R, pralsetinib 10 mg/kg BID, day 15", "result": 1059.21}, {"measurement": "Tumor Volume Mean", "setting": "[4]; Fig. 7d Ba/F3-KIF5B::RET G810R, pralsetinib 30 mg/kg BID, day 1", "result": 163.0}, {"measurement": "Tumor Volume Mean", "setting": "[4]; Fig. 7d Ba/F3-KIF5B::RET G810R, pralsetinib 30 mg/kg BID, day 4", "result": 312.7}, {"measurement": "Tumor Volume Mean", "setting": "[4]; Fig. 7d Ba/F3-KIF5B::RET G810R, pralsetinib 30 mg/kg BID, day 8", "result": 411.9}, {"measurement": "Tumor Volume Mean", "setting": "[4]; Fig. 7d Ba/F3-KIF5B::RET G810R, pralsetinib 30 mg/kg BID, day 11", "result": 562.8}, {"measurement": "Tumor Volume Mean", "setting": "[4]; Fig. 7d Ba/F3-KIF5B::RET G810R, pralsetinib 30 mg/kg BID, day 15", "result": 747.9}]}
